Source: patent US20220096516A1, “OLIGONUCLEOTIDE MOLECULE AND APPLICATION THEREOF IN TUMOR THERAPY” (Ractigen Therapeutics, priority 2019, published 2022)
d = 2'-deoxy (DNA); r = 2'-OH (RNA)

Assays:
[1] = test system: HepG2 cells; test: saRNA in combination with chemical drugs, CCK-8 viability and combination index (Compusyn), HepG2; format: cell-based, human
Procedure: The saRNAs were transfected into cancer cells at different concentrations in combination with a panel of chemical drugs. In FIG. 8A, cell viability in the saRNA treatment group was evaluated by the CCK-8 method and recorded as a percentage relative to the viability of cells in a control (Mock) treatment group. In FIG. 8B, Compusyn© version 1.0 software was used to draw a combination index graphs; and to calculate combination index values as shown in FIG. 8C.
(§1) The compounds used in the study included: Sorafenib (Sora) (SELLECK, S1040), Lenvatinib (Lenv) (SELLECK, S1164), Regorafenib (Rego) (SELLECK, S1178), and Cabozantinib (Cabo) (SELLECK, S1119). Cells were transfected with each candidate saRNAs at varying concentration gradients for 24 hours. Thereafter, the aforementioned compounds were added to the transfected cells at a concentration of 5 μM and the cells were incubated with the compounds for 48 hours. Cell viability was measured using the CCK-8 method. Compusyn© version 1.0 software (ComboSyn, Inc. Paramus, N.J., USA) was used to analyze the combination index (CI) of drugs, wherein CI<1 represented a synergistic effect, CI=1 represented an additive effect, and CI>1 represented an antagonistic effect.

[2] = test system: prostatic cancer cell line PC3; test: Cell viability by CCK-8 method, PC3; format: cell-based, human; conditions: PC3, 10 nM, 72 h, FIG. 7B
Procedure: (§2) 8 LHPP promoter-targeting saRNAs were individually transfected into cancer cells at 10 nM for 72 h. In FIG. 7A, the expression level of LHPP mRNA was analyzed by RT-qPCR. In FIG. 7B, cell viability in the saRNA treatment group was evaluated by the CCK-8 method and recorded as a percentage relative to the viability of cells in a control (Mock) treatment group.
(§3) The cell viability was detected by the following CCK-8 method: the cCells were plated into a 96-well plate at 3-5×10^3 cells/well, cultured overnight, and transfected with the oligonucleotide duplexes. After 72 hour of transfection, 10 uL of CCK-8 solution (Dojindo Molecular Technologies) was added into each well. After 1 hour of incubation at 37° C., a microplate reader was used to measure absorbances at 450 nm.
(§4) In order to further evaluate the effect of LHPP saRNAs in inducing the mRNA expression of the LHPP gene and inhibiting the proliferation of cancer cells, eight screened saRNAs (RAG7-132, RAG7-133, RAG7-139, RAG7-177, RAG7-178, RAG7-694, RAG7-707 and RAG7-892) each were transfected into the liver cancer cell lines Huh7 (Medical Cell Resource Center, Tohoku University, Japan), HepG2 (ATCC), Hep3B (ATCC), Li-7 (Medical Cell Resource Center, Tohoku University, Japan) and SK-HEP-1 (ATCC), a lung cancer cell line A549 (ATCC), a bladder cancer cell line T24 (ATCC), a prostatic cancer cell line PC3 (ATCC), and a glioma cell line U87MG (ATCC). The mRNA expression and cell viability of the transfected cells were measured.

[3] = test system: HepG2 transplanted tumor; test: HepG2 transplanted tumor growth in nude mice; design: species or system BALB/c nude mice; conditions: HepG2 xenograft, day 13; saRNA (in vivo-jetPEI) 1 mg/kg intratumor days 1, 4, 7, 10; regorafenib 3 mg/kg intragastric daily day 1-12; vehicle 118%
Procedure: To prepare the saRNA formulation, the in vivo-jetPEI (201-10G, Polyplus-transfection, France) was adopted as an saRNA delivery system. The preparation process is briefly described as follows. An saRNA was first diluted in 10% glucose solution to obtain a solution A. According to the instructions of the manufacturer, a required amount of in vivo-jetPEI was diluted in 10% glucose solution to obtain a solution B. Equal volumes of the solution A and the solution B were mixed (nitrogen-to-phosphorus ratio: 8; final concentration of glucose: 5%). After mixing, the mixture was let to stand at room temperature for 15 minutes for later use.
HepG2 cells in the logarithmic growth phase were obtained and counted, and then the cell suspension was regulated to 5×10^7 cells/mL and subcutaneously inoculated into the right armpit of BALB/c nude mice at a volume of 0.1 mL per mouse. […] Starting from the initial administration, the long diameter and the short diameter of each tumor were measured with a vernier caliper every two days. The tumor volume was calculated according to the formula V=(l×w^2)/2, wherein 1 represents the longest diameter of the tumor and w represents the diameter parallel to the surface of the tumor and perpendicular to the long diameter. A tumor growth curve and size and morphology of the tumor after anatomy were recorded during the administration.

[4] = test system: U87MG cells; test: saRNA in combination with chemical drugs, CCK-8 viability and combination index (Compusyn), U87MG; format: cell-based, human
Procedure: The sRNAs were transfected into cancer cells at different concentrations in combination with different chemical drugs. In FIG. 9A, cell viability in the saRNA treatment group was evaluated by the CCK-8 method and recorded as a percentage relative to the viability of cells in a control (Mock) treatment group. In FIG. 9B, Compusyn© version 1.0 software was used to draw a combination index graphs; and to calculate combination index values as shown in FIG. 9C.
as §1

[5] = test system: glioma cell line U87MG; test: Cell viability by CCK-8 method, U87MG; format: cell-based, human; conditions: 10 nM, 72 h, FIG. 7B
Procedure: as §2, §3, §4

[6] = test system: Li-7 cells; test: Cell viability by CCK-8 method, Li-7; format: cell-based, human; conditions: Li-7, 10 nM, 72 h, FIG. 6B
Procedure: 8 LHPP promoter-targeting saRNAs were individually transfected into liver cancer cells at 10 nM for 72 h. In FIG. 6A, the expression level of LHPP mRNA was analyzed by RT-qPCR. In FIG. 6B, cell viability in the saRNA treatment group was evaluated by the CCK-8 method and recorded as a percentage relative to the viability of cells in a control (Mock) treatment group.
The cell viability was detected by the following CCK-8 method: the cCells were plated into a 96-well plate at 3-5×10^3 cells/well, cultured overnight, and transfected with the oligonucleotide duplexes. After 72 hour of transfection, 10 uL of CCK-8 solution (Dojindo Molecular Technologies) was added into each well. After 1 hour of incubation at 37° C., a microplate reader was used to measure absorbances at 450 nm. […]

[7] = test system: Huh7 cells; test: Cell viability by CCK-8 method, Huh7; format: cell-based, human; conditions: Huh7, 10 nM, 72 h, FIG. 6B
Procedure: The 290 saRNAs targeting the LHPP promoter were individually transfected into Huh7 cells, and 72 hour later, one-step RT-qPCR was employed to analyze the expression levels of LHPP mRNA and cell viability was detected by the CCK-8 method.
as §3, §4

In the case of “RAG7-133: saRNA duplex; sense GCUCUUUGUCCGCUGAUCUTT (SEQ ID NO: 1), antisense AGAUCAGCGGACAAAGAGCTT (SEQ ID NO: 165) (sugars from the 5' end r19 d2, backbone not given here)”, the “combination index (CI)” value ([1]; high dose (25 nM to 100 nM) saRNA with Regorafenib 5 μM) is reported as under 0.3, the “combination index (CI)” value ([1]; saRNA with Cabozantinib 5 μM) is reported as under 1 and the “combination index (CI)” value ([1]; saRNA with Lenvatinib 5 μM) is reported as over 1. The “combination index (CI)” value ([1]; saRNA with Sorafenib 5 μM) was under 1, the “cell proliferation (cell viability, CCK-8)” value (“cell proliferation” below) [2] was “inhibited cell proliferation” and the “tumor volume increase compared with that at the beginning of treatment” value [3] was 34%. For the same substance, the “combination index (CI)” value ([4]; saRNA 1.0 nM to 100 nM with Cabozantinib 5 μM) was under 0.1, the “combination index (CI)” value ([4]; saRNA 1.0 nM to 100 nM with Lenvatinib 5 μM) was under 0.1 and the “combination index (CI)” value ([4]; saRNA with all the four compounds (Sorafenib, Lenvatinib, Regorafenib, Cabozantinib) 5 μM) was under 1. For the same substance, the “cell proliferation” value [5] was “inhibited cell proliferation”, the “cell proliferation” value [6] was “inhibited cell proliferation” and the “cell proliferation” value [7] was “inhibited cell proliferation”.
